Assay results from patent publication US9926321B2, “Hsp90 inhibitors” (Sloan-Kettering Institute for Cancer Research, priority 2011, dated 2018).

Tests used:
Hsp90 (SKBr3 lysate) = assay: Hsp90 binding assay (fluorescence polarization, cy3B-GM displacement), human cancer cell lysate; details: lysate not given
Procedure: (§1) For the binding studies, fluorescence polarization (FP) assays w-re performed similarly as was previously reported [Du et al. (2007) “High-throughput screening fluorescence polarization assay for tumor-specific Hsp90” J. Biomol. Screen 12:915-924]. Briefly, FP measurements were performed on an Analyst GT instrument (Molecular Devices, Sunnyvale, Calif.). Measurements were taken in black 96-well microtiter plates (Corning #3650) where both the excitation and the emission occurred from the top of the well. A stock of 10 μM cy3B-GM was prepared in DMSO and diluted with HFB buffer (20 mM Hepes (K), pH 7.3, 50 mM KCl, 2 mM DTT, 5 mM MgCl2, 20 mM Na2MoO4, and 0.01% NP40 with 0.1 mg/mL BGG). The test compounds were dissolved in DMSO and added at several concentrations to the HFB assay buffer containing both 6 nM cy3B-GM and transgenic mouse brain lysate (6 μg JNPL3 lysate) or human cancer cell lysate (3 μg SKBr3 lysate) in a final volume of 100 μL. Drugs were added to triplicate wells. Free cy3B-GM (6 nM cy3B-GM), bound cy3B-GM (6 nM cy3B-GM+lysate, as indicated above) and buffer only containing wells (background) were included as controls in each plate. Plates were incubated on a shake at 4° C., and polarization values measured at 24 h. Percentage inhibition was calculated as follows: (% Control)=100−((mPc−mPf)/(mPb−mPf))×100, where mPc is the recorded mP from compound wells, mPf is the average recorded mP from cy3B-GM-only wells, and mPb is the average recorded mP from wells containing both cy3B-GM and lysate, and plotted against values of competitor concentrations. The inhibitor concentration at which 50% of bound cy3B-GM was displaced was obtained by fitting the data using a nonlinear regression analysis as implemented in Prism 4.0 (GraphPad Software).

Hsp90 = assay: as above; details: fluorescence polarization, cy3B-GM displacement; the table does not say which lysate (SKBr3 or JNPL3)
Procedure: as §1

hERG = biological target: T1, hERG (Homo sapiens, UniProt Q12809); assay: hERG fluorescence polarization assay (Predictor hERG kit); assay type: binding; details: Predictor hERG fluorescence polarization, displacement of tracer red, read after 4 hrs; read-out: hERG assay
T1 construct: purchased Invitrogen PV5365
T1 sequence (Q12809 whole entry): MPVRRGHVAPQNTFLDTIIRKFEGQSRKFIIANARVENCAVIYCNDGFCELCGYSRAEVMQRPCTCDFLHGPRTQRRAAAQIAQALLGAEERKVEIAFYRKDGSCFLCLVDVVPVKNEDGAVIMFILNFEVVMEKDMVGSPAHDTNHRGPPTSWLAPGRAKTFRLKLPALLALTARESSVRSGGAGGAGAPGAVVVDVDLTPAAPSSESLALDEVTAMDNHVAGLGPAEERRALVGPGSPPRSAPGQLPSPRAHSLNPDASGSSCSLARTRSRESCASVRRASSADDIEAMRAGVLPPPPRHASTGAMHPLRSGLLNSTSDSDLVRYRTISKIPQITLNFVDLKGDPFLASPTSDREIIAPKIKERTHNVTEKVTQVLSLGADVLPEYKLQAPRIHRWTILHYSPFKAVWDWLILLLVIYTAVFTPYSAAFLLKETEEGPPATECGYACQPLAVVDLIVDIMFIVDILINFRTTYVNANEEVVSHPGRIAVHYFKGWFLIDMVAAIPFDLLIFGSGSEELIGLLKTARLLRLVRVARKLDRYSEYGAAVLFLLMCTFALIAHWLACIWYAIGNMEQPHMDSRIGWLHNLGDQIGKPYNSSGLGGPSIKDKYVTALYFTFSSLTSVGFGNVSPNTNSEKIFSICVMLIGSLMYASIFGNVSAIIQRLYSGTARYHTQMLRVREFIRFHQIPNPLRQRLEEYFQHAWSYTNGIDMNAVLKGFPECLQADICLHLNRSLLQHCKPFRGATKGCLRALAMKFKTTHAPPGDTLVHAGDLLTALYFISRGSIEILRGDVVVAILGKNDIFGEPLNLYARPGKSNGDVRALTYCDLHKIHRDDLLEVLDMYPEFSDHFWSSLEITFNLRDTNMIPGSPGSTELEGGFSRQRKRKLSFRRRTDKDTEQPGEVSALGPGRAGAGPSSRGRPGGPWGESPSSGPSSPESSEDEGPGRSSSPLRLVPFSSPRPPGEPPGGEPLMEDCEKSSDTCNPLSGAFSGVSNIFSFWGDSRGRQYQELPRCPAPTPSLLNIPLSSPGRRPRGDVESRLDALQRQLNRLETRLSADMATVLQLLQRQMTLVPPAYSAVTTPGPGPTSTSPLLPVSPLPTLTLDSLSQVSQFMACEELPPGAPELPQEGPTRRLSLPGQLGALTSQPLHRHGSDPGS
Procedure: hERG Fluorescence Polarization Assay:
Following the manufacturer's protocol, the hERG assay was performed using Predictor hERG Fluorescence Polarization Assay kit (catalog no. PV5365) from Invitrogen. Briefly, FP measurements were performed on an Analyst GT instrument (Molecular Devices, Sunnyvale, Calif.). Measurements were taken in black 384-well plates (Corning #3677), where both the excitation and the emission occurred from the top of the well. The test compounds were dissolved in DMSO and added at several concentrations to the Predictor hERG FP assay buffer containing 4 nM Predictor hERG tracer red and 10 μL of Predictor hERG membrane in a final volume of 20 μL. Drugs were added to triplicate wells. E-4031 as positive control was included in each plate. Plates were then kept on a shaker at room temperature and polarization values were measured after 4 hrs. The inhibition concentration at which 50% of tracer red gets displaced was obtained by fitting the data using a nonlinear regression analysis as implemented in Prism 5.0 (GraphPad Software).

IC50 (Hsp90) [nM]	SMILES	Hsp90 binding affinity (in words, referring to Table 12) (Hsp90 (SKBr3 lysate))	IC50 (hERG) [nM]
33.1	CC(C)(C)C(=O)NCCCn1c(Cc2cc3c(cc2I)OCO3)nc2c(N)nc(F)nc21 [Compound 4A-43, N-{3-[6-Amino-2-fluoro-8-(6-iodo-benzo[1,3]dioxol-5-ylmethyl)-purin-9-yl]-propyl}-2,2-dimethyl-propionamide]	high level of binding affinity	> 100000
47	CC(C)S(=O)(=O)NCCCn1c(Sc2cc3c(cc2I)OCO3)nc2c(N)ncnc21 [Compound 1A-22, Propane-2-sulfonic acid {3-[6-amino-8-(6-iodo-benzo[1,3]dioxol-5-ylsulfanyl)-purin-9-yl]-propyl}-amide]	high level of binding affinity	> 100000
9.8	Nc1ncnc2c1nc(Sc1cc3c(cc1I)OCO3)n2CCCNC(=O)C1CC1 [Compound 1A-45, N-(3-(6-amino-8-((6-iodobenzo[d][1,3]dioxol-5-yl)thio)-9H-purin-9-yl)propyl)cyclopropane carboxamide]	–	> 100000
11	CC(C)(C)C(=O)NCCCn1c(Sc2cc3c(cc2I)OCO3)nc2c(N)ncnc21 [Compound 1A-43, N-(3-(6-amino-8-((6-iodobenzo[d][1,3]dioxol-5-yl)thio)-9H-purin-9-yl)propyl)pivalamide]	–	> 100000
37	C#Cc1cc2c(cc1Sc1nc3c(N)ncnc3n1CCCNC(=O)C1CC1)OCO2 [Compound 1B-45, Cyclopropanecarboxylic acid {3-(6-amino-8-(6-ethynyl-benzo[1,3]dioxol-5-ylsulfanyl)-purin-9-yl]-propyl}-amide]	high level of binding affinity	> 100000
20.5	CC(C)NS(=O)(=O)CCCn1c(Sc2cc3c(cc2I)OCO3)nc2c(N)ncnc21 [Compound 1A-15, 3-[6-Amino-8-(6-iodo-benzo[1,3]dioxol-5-ylsulfanyl)-purin-9-yl]-propane-1-sulfonic acid isopropylamide]	high level of binding affinity	> 100000
24	Nc1nc(F)nc2c1nc(Cc1cc3c(cc1I)OCO3)n2CCCNS(=O)(=O)C1CC1 [Compound 4A-28, N-(3-(6-amino-2-fluoro-8-((6-iodobenzo[d][1,3]dioxol-5-yl)methyl)-9H-purin-9-yl)propyl)cyclopropane-sulfonamide]	high level of binding affinity	> 100000
15	CN(C)c1cc2c(cc1Sc1nc3c(N)ncnc3n1CCCNC(=O)C1CC1)OCO2 [Compound 1G-45, Cyclopropanecarboxylic acid {3-[6-amino-8-(6-dimethylamino-benzo[1,3]dioxol-5-ylsulfanyl)-purin-9-yl]-propyl}-amide]	high level of binding affinity	76000
22.1	CC(C)(O)C(=O)NCCCn1c(Sc2cc3c(cc2I)OCO3)nc2c(N)ncnc21 [Compound 1A-48, N-(3-(6-Amino-8-((6-iodobenzo[d][1,3]dioxol-5-yl)thio)-9H-purin-9-yl)propyl)-2-hydroxy-2-methylpropanamide]	–	12000
11	CN(C)c1cc2c(cc1Sc1nc3c(N)ncnc3n1CCCNC(=O)C(C)(C)C)OCO2 [Compound 1G-43, N-{3-[6-Amino-8-(6-dimethylamino-benzo[1,3]dioxol-5-ylsulfanyl)-purin-9-yl]-propyl}-2,2-dimethyl-propionamide]	high level of binding affinity	> 100000
28	C#Cc1cc2c(cc1Sc1nc3c(N)ncnc3n1CCCNC(=O)C(C)(C)C)OCO2 [Compound 1B-43, N-{3-[6-Amino-8-(6-ethynyl-benzo[1,3]dioxol-5-ylsulfanyl)-purin-9-yl]-propyl}-2,2-dimethyl-propionamide]	high level of binding affinity	> 100000
53	C#Cc1cc2c(cc1Sc1nc3c(N)ncnc3n1CCCNS(=O)(=O)C1CC1)OCO2 [Compound 1B-28, Cyclopropanesulfonic acid {3-[6-amino-8-(6-ethynyl-benzo[1,3]dioxol-5-ylsulfanyl)-purin-9-yl]-propyl}-amide]	high level of binding affinity	> 100000
12	CC(C)(C)[S+]([O-])NCCCn1c(Sc2cc3c(cc2I)OCO3)nc2c(N)ncnc21 (centres unmarked) [Compound 1A-26, 2-Methyl-propane-2-sulfinic acid {3-[6-amino-8-(6-iodo-benzo[1,3]dioxol-5-ylsulfanyl)-purin-9-yl]-propyl}-amide]	–	> 100000
20	Nc1nc(F)nc2c1nc(Cc1cc3c(cc1I)OCO3)n2CCCNC(=O)C1CC1 [Compound 4A-45, Cyclopropanecarboxylic acid {3-[6-amino-2-fluoro-8-(6-iodo-benzo[1,3]dioxol-5-ylmethyl)-purin-9-yl]-propyl}-amide]	high level of binding affinity	> 100000
26.2	CC(C)(C)[S+]([O-])NCCCn1c(Cc2cc3c(cc2I)OCO3)nc2c(N)nc(F)nc21 (centres unmarked) [Compound 4A-26, N-(3-(6-amino-2-fluoro-8-((6-iodobenzo[d][1,3]dioxol-5-yl)methyl)-9H-purin-9-yl)propyl)-2-methylpropane-2-sulfinamide]	high level of binding affinity	> 100000
